Earlier results, collected in patent US20100197018A1, “USE OF SUBSTRATES AS PHARMACOLOGICAL CHAPERONES” (AMICUS THERAPEUTICS, INC., priority 2007, published 2010).
Read-outs that look alike come from different tables or passages of the source.

Experiments:
heparan-N-sulfatase = biological target: T1, heparan-N-sulfatase (Homo sapiens, UniProt P51688); conditions: for Relative catalytic efficiency* / Km / kcat. (turnover number): 37°; for Relative catalytic efficiency*: GlcNS = 1.00; for pH optimum of the enzyme for the substrate: purified enzyme
T1 sequence (P51688 21-502): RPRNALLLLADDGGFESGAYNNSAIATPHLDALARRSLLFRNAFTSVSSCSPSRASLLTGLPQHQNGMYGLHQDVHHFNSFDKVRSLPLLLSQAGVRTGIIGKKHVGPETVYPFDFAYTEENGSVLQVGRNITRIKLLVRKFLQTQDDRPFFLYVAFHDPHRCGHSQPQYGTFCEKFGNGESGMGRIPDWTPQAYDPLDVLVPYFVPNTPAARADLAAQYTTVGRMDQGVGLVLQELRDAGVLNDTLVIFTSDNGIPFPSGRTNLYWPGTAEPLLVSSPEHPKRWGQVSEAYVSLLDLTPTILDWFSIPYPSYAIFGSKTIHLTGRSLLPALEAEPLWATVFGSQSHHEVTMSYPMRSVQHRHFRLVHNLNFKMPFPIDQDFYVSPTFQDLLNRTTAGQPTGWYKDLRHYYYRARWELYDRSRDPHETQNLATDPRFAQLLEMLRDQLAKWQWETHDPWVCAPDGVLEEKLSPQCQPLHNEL

[1] = biological target: T2, N-acetyl-glucosamine-6-sulfate sulfatase (6S) Form A (Homo sapiens, UniProt P15586); conditions: for Relative catalytic efficiency*: kcat./Km calculated relative to a value for GlcNAc6S = 1; for pH optimum: Table 6; for Relative catalytic efficiency*, value in parentheses: relative to GlcNAc6S = 1; for Ratio of catalytic efficiencies: form A/form B: form A over form B
T2 sequence (P15586 37-552): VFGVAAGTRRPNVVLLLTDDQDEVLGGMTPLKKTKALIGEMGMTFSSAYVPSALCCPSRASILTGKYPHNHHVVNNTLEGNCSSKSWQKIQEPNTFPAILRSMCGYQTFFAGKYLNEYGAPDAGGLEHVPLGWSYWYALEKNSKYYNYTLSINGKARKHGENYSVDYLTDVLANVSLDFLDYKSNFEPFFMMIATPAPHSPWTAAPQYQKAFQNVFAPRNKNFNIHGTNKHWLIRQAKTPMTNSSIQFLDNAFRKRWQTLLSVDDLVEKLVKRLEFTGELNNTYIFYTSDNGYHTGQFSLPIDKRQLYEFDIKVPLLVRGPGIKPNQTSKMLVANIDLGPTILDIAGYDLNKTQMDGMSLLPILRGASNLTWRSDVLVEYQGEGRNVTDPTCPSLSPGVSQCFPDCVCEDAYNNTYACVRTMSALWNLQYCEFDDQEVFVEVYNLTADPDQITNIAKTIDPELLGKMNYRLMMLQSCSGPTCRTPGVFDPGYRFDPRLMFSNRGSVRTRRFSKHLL

BACEI = BACEI (Homo sapiens, UniProt P56817); conditions: low concentrations
Chain of BACEI (P56817 46-457 limits assumed): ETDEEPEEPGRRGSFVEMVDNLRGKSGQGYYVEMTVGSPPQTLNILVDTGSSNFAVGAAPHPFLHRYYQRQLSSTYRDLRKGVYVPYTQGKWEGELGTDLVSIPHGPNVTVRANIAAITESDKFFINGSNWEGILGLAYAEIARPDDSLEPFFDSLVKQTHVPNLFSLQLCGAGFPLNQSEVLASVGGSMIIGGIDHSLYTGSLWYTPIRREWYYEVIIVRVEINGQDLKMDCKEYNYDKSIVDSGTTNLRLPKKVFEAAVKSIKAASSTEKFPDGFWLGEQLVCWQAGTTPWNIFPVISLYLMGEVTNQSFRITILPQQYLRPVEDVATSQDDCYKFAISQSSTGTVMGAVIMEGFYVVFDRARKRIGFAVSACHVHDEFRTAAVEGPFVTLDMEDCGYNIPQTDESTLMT

[2] = in vivo
[3] = biological target: T3, N-acetyl-glucosamine-6-sulfate sulfatase (6S) Form B (Homo sapiens, UniProt P15586)
T3 sequence (P15586 37-552): T2 sequence (P15586 37-552)

[4] = pH: GlcNS-Ido 6.7, GlcNS-Ido2S 5.5, GlcNS-IdOA 5.6, GlcNS-IdoA-GlcNS-IdOA 5.6, GlcNS-IdoA2S-anM6S 3.6, GlcNS6S-Ido 4.2, GlcNS6S-Ido2S 3.8, GlcNS6S-IdOA 4.2
[5] = pH 5.6 (second line of the substrate)
[6] = Form A, parentheses not explained
[7] = Form A, second line of the substrate, parentheses not explained
[8] = Form A, second line of the substrate, parentheses not explained, read-out: Km, value in parentheses
[9] = second line of the substrate, parentheses not explained
[10] = second line of the substrate, parentheses not explained, read-out: Km, value in parentheses

Compound | Relative catalytic efficiency* (heparan-N-sulfatase; pH (optimum)) | Km (heparan-N-sulfatase; [4]) [µM] | kcat. (turnover number) (heparan-N-sulfatase; [4]) | kcat. (turnover number) ([1]; Form A) | Relative catalytic efficiency* ([1]; Form A) | Km ([1]; Form A, read-out: Km) [µM] | pH optimum [1] | Ratio of catalytic efficiencies: form A/form B [1] | Km ([3]; read-out: Km) [µM] | also measured
O=C[C@H](OS(=O)(=O)O)[C@@H](O)[C@H](O[C@H]1O[C@H](COS(=O)(=O)O)[C@@H](O)[C@H](O)[C@H]1NS(=O)(=O)O)[C@@H](O)CO [GlcNS6S-Ido2S, O-(α-2-sulphaminoglucosamine 6-sulphate)-(1-4)-L-idose 2-sulphate] | 388 | 4.1 | 3.333 mol/min per mol of enzyme | 0.201 mol/min per mol of enzyme | 3.8 | 2.3 | 4.2 |  |  | 
heparin |  |  |  |  |  |  |  |  |  | effect on partially active BACEI (BACEI): stimulate partially active BACEI
heparan sulphate |  |  |  |  |  |  |  |  |  | oral activity [2]: orally active
O=C(O)[C@H](O)[C@@H](O[C@H]1O[C@H](COS(=O)(=O)O)[C@@H](O)[C@H](O)[C@H]1NS(=O)(=O)O)[C@H](O)[C@@H](O)CO [GlcNS6S-IdOA, O-(α-2-sulphaminoglucosamine 6 sulphate)-(1-3)-L-idonic acid] | 33 | 2.5 | 0.105 mol/min per mol of enzyme | 2.46 mol/min per mol of enzyme | 13 | 8 | 5.0 | 2.2 | 8.3 | Km (heparan-N-sulfatase; [5]): 2.4 µM; kcat. (turnover number) (heparan-N-sulfatase; [5]): 0.088 mol/min per mol of enzyme; Relative catalytic efficiency* (heparan-N-sulfatase; [5]): 50; Relative catalytic efficiency*, value in parentheses [1, 6]: (9.8); kcat. (turnover number), value in parentheses [1, 7]: (1.725) mol/min per mol of enzyme; Km [1, 8]: 7.6 µM; Ratio of catalytic efficiencies: form A/form B, value in parentheses [1, 9]: (2.5); pH optimum, value in parentheses [1, 9]: (5.0); Km [3, 10]: 6.6 µM
O=C[C@H](O)[C@@H](O)[C@H](O)[C@H](O)COS(=O)(=O)O [Glc6S, glucose 6-sulfate] |  |  |  | 0.585 mol/min per mol of enzyme | 0.4 | 62.5 | 5.7 | 1.3 | 62.5 | Kcat [1]: 0.585 mol/min/mol enzyme; pH optimum of 6S activity [1]: 5.7; Km ([1]; read-out: Km): 62.5 µM
O=C[C@H](O)[C@@H](O)[C@H](O[C@H]1O[C@H](COS(=O)(=O)O)[C@@H](O)[C@H](O)[C@H]1NS(=O)(=O)O)[C@@H](O)CO [GlcNS6S-Ido, O-(α-2-sulphaminoglucosamine 6-sulphate)-(1-4)-L-idose] | 28 | 3 | 0.061 mol/min per mol of enzyme | 0.518 mol/min per mol of enzyme | 2.1 | 10.8 | 4.8 | 1.9 | 9.2 | 
CC(=O)N[C@H]1C(O)O[C@H](COS(=O)(=O)O)[C@@H](O)[C@@H]1O (stereo partly drawn) [GlcNAc6S, N-acetyl-glucosamine 6-sulfate] |  |  |  | 0.165 mol/min per mol of enzyme | 1.0 | 7.1 | 5.7 | 2.1 | 10 | pH optimum of 6S activity [1]: 5.7; decrease in the Km ([1]; addition of a 2-acetamido group to Glc6S): 6-9 fold; effect on Kcat ([1]; relative to the parent substrate (Glc6S for GlcNAc6S; GlcNAc6S for GlcNAc6S-Ido)): decrease in Kcat
O=C(O)[C@@H]1O[C@@H](O[C@H]2[C@H](O)[C@@H](CO)O[C@@H]2COS(=O)(=O)O)[C@H](OS(=O)(=O)O)[C@@H](O)[C@@H]1O[C@H]1O[C@H](CO)[C@@H](O)[C@H](O)[C@H]1NS(=O)(=O)O [GlcNS-IdoA2S-anM6S, O-α-2-sulphaminoglucosamine)-(1-4) O-L-(α-iduronic-acid 2-sulphate)-(1-4)-O-D-(2,5)-anhydro-mannitol 6-sulphate] | 67193 | 3.8 | 186 mol/min per mol of enzyme |  |  |  |  |  |  | Km (heparan-N-sulfatase; [5]): 5.3 µM; kcat. (turnover number) (heparan-N-sulfatase; [5]): 117 mol/min per mol of enzyme; Relative catalytic efficiency* (heparan-N-sulfatase; [5]): 30237
O=S(=O)(O)N[C@H]1[C@@H](O[C@H]2[C@H](O)[C@@H](OS(=O)(=O)O)C(O)O[C@H]2CO)O[C@H](CO)[C@@H](O)[C@@H]1O (stereo partly drawn) [GlcNS-Ido2S, O-(α-2-sulphaminoglucosamine)-(1-4)-L-6-idose 2-sulphate] | 36 | 4.1 | 0.11 mol/min per mol of enzyme |  |  |  |  |  |  | pH optimum of the enzyme for the substrate (heparan-N-sulfatase): 5.5
CC(=O)N[C@H]1[C@@H](O[C@@H]([C@H](O)[C@@H](O)CO)[C@@H](O)C(=O)O)O[C@H](COS(=O)(=O)O)[C@@H](O)[C@@H]1O [GlcNAc6S-IdOA, O-(α-N-acetylglucosamine 6-sulphate)-(1-3)-L-idonic acid] |  |  |  | 7.90 mol/min per mol of enzyme | 31 | 11.1 | 5.0 | 2.4 | 14.3 | pH optimum of 6S activity [1]: 5.0; Relative catalytic efficiency*, value in parentheses [1, 6]: (29); kcat. (turnover number), value in parentheses [1, 7]: (6.79) mol/min per mol of enzyme; Km [1, 8]: 10 µM; Ratio of catalytic efficiencies: form A/form B, value in parentheses [1, 9]: (2.8); pH optimum, value in parentheses [1, 9]: (5.0); Km [3, 10]: 13.2 µM
O=C[C@H](O)[C@@H](O)[C@H](O[C@H]1O[C@H](CO)[C@@H](O)[C@H](O)[C@H]1NS(=O)(=O)O)[C@@H](O)CO [GlcNS-Ido, O-(α-2-sulphaminoglucosamine)-(1-4)-L-idose)] | 7.40 | 7.7 | 0.0414 mol/min per mol of enzyme |  |  |  |  |  |  | pH optimum of the enzyme for the substrate (heparan-N-sulfatase): 6.7
